Test results reported in US6737383B1, “Herbicidal oxadiazolidines” (priority 1999, dated 2004).

Assays:
[1] = test system: blackgrass; assay: Test B pre/postemergence blackgrass; format: in vivo, Alopecurus myosuroides
Method in brief: (§1)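 Test chemicals in a non-phytotoxic solvent mixture with surfactant were sprayed preemergence onto planted seeds and postemergence onto plants 2 to 18 cm tall (1- to 4-leaf stage). After twelve to sixteen days in a greenhouse, injury was visually rated against untreated controls from 0 (no effect) to 10 (complete control).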

[2] = test system: surinam grass; assay: Test B pre/postemergence surinam grass; format: in vivo, Brachiaria decumbens
Method in brief: as §1

[3] = test system: cocklebur; assay: Test B pre/postemergence cocklebur; format: in vivo, Xanthium strumarium
Method in brief: as §1

[4] = test system: corn; assay: Test B pre/postemergence corn; format: in vivo, Zea mays
Method in brief: as §1

[5] = test system: crabgrass; assay: Test B pre/postemergence crabgrass; format: in vivo, Digitaria sanguinalis
Method in brief: as §1

[6] = test system: giant foxtail; assay: Test B pre/postemergence giant foxtail; format: in vivo, Setaria faberii
Method in brief: as §1

[7] = test system: pigweed; assay: Test B pre/postemergence pigweed; format: in vivo, Amaranthus retroflexus
Method in brief: as §1

[8] = test system: rape; assay: Test B pre/postemergence rape; format: in vivo, Brassica napus
Method in brief: as §1

[9] = test system: soybean; assay: Test B pre/postemergence soybean; format: in vivo, Glycine max
Method in brief: as §1

[10] = test system: sugar beet; assay: Test B pre/postemergence sugar beet; format: in vivo, Beta vulgaris
Method in brief: as §1

[11] = test system: wheat; assay: Test B pre/postemergence wheat; format: in vivo, Triticum aestivum
Method in brief: as §1

[12] = test system: purple nutsedge; assay: Test B pre/postemergence purple nutsedge; format: in vivo, Cyperus rotundus
Method in brief: as §1

[13] = test system: rice; assay: Test B flood test rice; format: in vivo, Oryza sativa
Method in brief: (§2)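 Read-out is a visual response score from 0 (no effect) to 10 (complete control), assigned by comparison with untreated controls. Treatment was applied at the 2-leaf stage, and plants stayed in the greenhouse for twelve to sixteen days before scoring.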

[14] = test system: smallflower flatsedge; assay: Test B flood test smallflower flatsedge; format: in vivo, Cyperus difformis
Method in brief: as §2

[15] = test system: duck salad; assay: Test B flood test duck salad; format: in vivo, Heteranthera limosa
Method in brief: as §2

[16] = test system: bamyardgrass; assay: Test B flood test barnyardgrass; format: in vivo, Echinochloa crus-galli
Method in brief: as §2

[17] = Postemergence, Rate 125 g/ha, scale of 0 to 10 where 0 is no effect and 10 is complete control
[18] = Preemergence, Rate 62 g/ha, scale 0 to 10 (0 no effect, 10 complete control)
[19] = Preemergence, Rate 125 g/ha, 0 is no effect, 10 is complete control
[20] = Preemergence, Rate 250 g/ha, scale 0 to 10, 0 is no effect, 10 is complete control
[21] = Preemergence, Rate 500 g/ha, scale 0 to 10 (0 no effect, 10 complete control)
[22] = Rate 62 g/ha, Postemergence, scale of 0 to 10 where 0 is no effect and 10 is complete control
[23] = Rate 250 g/ha, Postemergence, scale 0 to 10, 0 is no effect, 10 is complete control
[24] = Rate 500 g/ha, Postemergence, scale 0 to 10
[25] = Postemergence (flood test species), Rate 125 g/ha, scale of 0 to 10 where 0 is no effect and 10 is complete control
[26] = Rate 62 g/ha, Postemergence section, flood test species, scale of 0 to 10 where 0 is no effect and 10 is complete control
[27] = Rate 250 g/ha, Postemergence (flood test), scale 0 to 10, 0 is no effect, 10 is complete control
[28] = Rate 250 g/ha, Pre-emergence, flood-test species, scale 0 to 10, 0 is no effect, 10 is complete control
[29] = Rate 500 g/ha, headed Pre-emergence (flood test species), scale 0 to 10 (0 no effect, 10 complete control)
[30] = Rate 500 g/ha, listed under Postemergence (flood test species), scale 0 to 10
[31] = Rate 1000 g/ha, Pre-emergence (as headed), scale 0 to 10
[32] = Rate 2000 g/ha, Pre-emergence (as headed), scale 0 to 10

SMILES: C=CCn1c(=O)on(C(=O)N(c2ccc(F)cc2)C2CC2)c1=O [Compound 154]
- Blackgrass plant response rating [1, 17]: 0
- Blackgrass plant response rating [1, 18]: 0
- Blackgrass plant response rating (0 to 10 scale) [1, 19]: 0
- Blackgrass plant response rating [1, 20]: 3
- Blackgrass plant response rating [1, 21]: 5
- Blackgrass plant response rating [1, 22]: 0
- Plant response rating, Blackgrass [1, 23]: 0
- Blackgrass plant response rating [1, 24]: 0
- B. signalgrass plant response rating [2, 17]: 0
- B. signalgrass plant response rating [2, 18]: 0
- B. signalgrass plant response rating (0 to 10 scale) [2, 19]: 0
- B. signalgrass plant response rating [2, 20]: 0
- B. signalgrass plant response rating [2, 21]: 4
- B. signalgrass plant response rating [2, 22]: 0
- Plant response rating, B. signalgrass [2, 23]: 0
- B. signalgrass plant response rating ([2]; Rate 500 g/ha, Postemergence, scale 0 to 10, 0 no effect, 10 complete control): 2
- Cocklebur plant response rating [3, 17]: 0
- Cocklebur plant response rating [3, 18]: 0
- Cocklebur plant response rating (0 to 10 scale) [3, 19]: 0
- Cocklebur plant response rating [3, 20]: 0
- Cocklebur plant response rating [3, 21]: 0
- Cocklebur plant response rating [3, 22]: 0
- Plant response rating, Cocklebur [3, 23]: 0
- Cocklebur plant response rating [3, 24]: 2
- Corn plant response rating [4, 17]: 0
- Corn plant response rating [4, 18]: 0
- Corn plant response rating (0 to 10 scale) [4, 19]: 0
- Corn plant response rating [4, 20]: 0
- Corn plant response rating [4, 21]: 0
- Corn plant response rating [4, 22]: 0
- Plant response rating, Corn [4, 23]: 0
- Corn plant response rating [4, 24]: 0
- Crabgrass plant response rating [5, 17]: 0
- Crabgrass plant response rating [5, 18]: 0
- Crabgrass plant response rating (0 to 10 scale) [5, 19]: 0
- Crabgrass plant response rating [5, 20]: 0
- Crabgrass plant response rating [5, 21]: 0
- Crabgrass plant response rating [5, 22]: 0
- Plant response rating, Crabgrass [5, 23]: 1
- Crabgrass plant response rating [5, 24]: 5
- Giant foxtail plant response rating [6, 17]: 0
- Giant foxtail plant response rating [6, 18]: 0
- Giant foxtail plant response rating (0 to 10 scale) [6, 19]: 0
- Giant foxtail plant response rating [6, 21]: 8
- Giant foxtail plant response rating [6, 22]: 0
- Plant response rating, Giant foxtail [6, 23]: 1
- Giant foxtail plant response rating [6, 24]: 3
- Redroot pigweed plant response rating [7, 17]: 0
- Redroot pigweed plant response rating [7, 18]: 6
- Redroot pigweed plant response rating (0 to 10 scale) [7, 19]: 7
- Redroot pigweed plant response rating [7, 20]: 8
- Redroot pigweed plant response rating [7, 21]: 9
- Redroot pigweed plant response rating [7, 22]: 0
- Plant response rating, Redroot pigweed [7, 23]: 2
- Redroot pigweed plant response rating [7, 24]: 6
- Rape plant response rating [8, 17]: 0
- Rape plant response rating [8, 18]: 0
- Rape plant response rating (0 to 10 scale) [8, 19]: 0
- Rape plant response rating [8, 20]: 0
- Rape plant response rating [8, 21]: 0
- Rape plant response rating [8, 22]: 0
- Plant response rating, Rape [8, 23]: 0
- Rape plant response rating [8, 24]: 0
- Soybean plant response rating [9, 17]: 2
- Soybean plant response rating [9, 18]: 0
- Soybean plant response rating (0 to 10 scale) [9, 19]: 0
- Soybean plant response rating [9, 20]: 0
- Soybean plant response rating [9, 21]: 0
- Soybean plant response rating [9, 22]: 2
- Plant response rating, Soybean [9, 23]: 2
- Soybean plant response rating [9, 24]: 3
- Sugarbeets plant response rating [10, 17]: 0
- Sugarbeets plant response rating [10, 18]: 0
- Sugarbeets plant response rating (0 to 10 scale) [10, 19]: 0
- Sugarbeets plant response rating [10, 20]: 4
- Sugarbeets plant response rating [10, 21]: 6
- Sugarbeets plant response rating [10, 22]: 0
- Plant response rating, Sugarbeets [10, 23]: 0
- Sugarbeets plant response rating [10, 24]: 0
- Wheat plant response rating [11, 18]: 0
- Wheat plant response rating (0 to 10 scale) [11, 19]: 0
- Wheat plant response rating [11, 20]: 0
- Wheat plant response rating [11, 21]: 0
- Wheat plant response rating [11, 22]: 0
- Plant response rating, Wheat [11, 23]: 0
- Wheat plant response rating [11, 24]: 0
- Nutsedge plant response rating [12, 17]: 0
- Nutsedge plant response rating [12, 18]: 0
- Nutsedge plant response rating (0 to 10 scale) [12, 19]: 0
- Nutsedge plant response rating [12, 20]: 0
- Nutsedge plant response rating [12, 21]: 0
- Nutsedge plant response rating [12, 22]: 0
- Plant response rating, Nutsedge [12, 23]: 0
- Nutsedge plant response rating [12, 24]: 0
- Rice plant response rating [13, 25]: 0
- Rice plant response rating [13, 26]: 0
- Plant response rating, Rice [13, 27]: 0
- Rice plant response rating [13, 28]: 0
- Plant response rating, Rice [13, 29]: 0
- Rice plant response rating [13, 30]: 0
- Rice plant response rating [13, 31]: 0
- Rice plant response rating [13, 32]: 0
- S. Flatsedge plant response rating [14, 25]: 0
- S. Flatsedge plant response rating ([14]; Pre-emergence, Rate 1000 g/ha, scale 0 to 10 (0 no effect, 10 complete control)): 0
- S. Flatsedge plant response rating [14, 26]: 0
- Plant response rating, S. Flatsedge [14, 27]: 0
- S. Flatsedge plant response rating [14, 28]: 0
- S. Flatsedge plant response rating [14, 30]: 0
- S. Flatsedge plant response rating ([14]; Rate 500 g/ha, Pre-emergence, flood test species, scale 0 to 10 (0 no effect, 10 complete control)): 0
- S. Flatsedge plant response rating [14, 32]: 0
- Ducksalad plant response rating [15, 25]: 0
- Ducksalad plant response rating [15, 26]: 0
- Plant response rating, Ducksalad [15, 27]: 0
- Ducksalad plant response rating [15, 28]: 0
- Plant response rating, Ducksalad [15, 29]: 0
- Ducksalad plant response rating [15, 30]: 0
- Ducksalad plant response rating [15, 31]: 0
- Ducksalad plant response rating [15, 32]: 0
- Barnyardgrass plant response rating [16, 25]: 0
- Barnyardgrass plant response rating [16, 26]: 0
- Plant response rating, Barnyardgrass [16, 27]: 0
- Barnyardgrass plant response rating [16, 28]: 0
- Plant response rating, Barnyardgrass [16, 29]: 0
- Barnyardgrass plant response rating [16, 30]: 0
- Barnyardgrass plant response rating [16, 31]: 0
- Barnyardgrass plant response rating ([16]; Rate 2000 g/ha, Pre-emergence (as headed), scale 0 to 10, 0 no effect, 10 complete control): 0
